Measurements as given in BigSolDB 2.1.

[1] = in 1,2-dichloroethane, 287.65 K
[2] = in 1,2-dichloroethane, 324.25 K
[3] = in 1,2-dichloroethane, 329.55 K
[4] = in 1,2-dichloroethane, 333.75 K

CSc1cccc(Nc2ccccc2)c1
solubility (mole fraction) [1]: 0.189 | solubility (mole fraction) (in 1,2-dichloroethane, 292.3 K): 0.231 | solubility (mole fraction) (in 1,2-dichloroethane, 296.85 K): 0.278 | solubility (mole fraction) (in 1,2-dichloroethane, 300.95 K): 0.311 | solubility (mole fraction) (in 1,2-dichloroethane, 305.35 K): 0.36 | solubility (mole fraction) (in 1,2-dichloroethane, 310.45 K): 0.415 | solubility (mole fraction) (in 1,2-dichloroethane, 315.15 K): 0.466 | solubility (mole fraction) (in 1,2-dichloroethane, 319.75 K): 0.515 | solubility (mole fraction) [2]: 0.562 | solubility (mole fraction) [3]: 0.615 | solubility (mole fraction) [4]: 0.654 | solubility (mole fraction) (in acetone, 287.45 K): 0.254 | solubility (mole fraction) (in acetone, 292.55 K): 0.306 | solubility (mole fraction) (in acetone, 296.15 K): 0.343 | solubility (mole fraction) (in acetone, 300.35 K): 0.381 | solubility (mole fraction) (in acetone, 305.45 K): 0.438 | solubility (mole fraction) (in acetone, 310.65 K): 0.5 | solubility (mole fraction) (in acetone, 315.15 K): 0.551 | solubility (mole fraction) (in acetone, 321.75 K): 0.643 | solubility (mole fraction) (in chloroform, 288.85 K): 0.226 | solubility (mole fraction) (in chloroform, 293.35 K): 0.263 | solubility (mole fraction) (in chloroform, 297.05 K): 0.296 | solubility (mole fraction) (in chloroform, 302 K): 0.338 | solubility (mole fraction) (in chloroform, 307.55 K): 0.391 | solubility (mole fraction) (in chloroform, 313.25 K): 0.449 | solubility (mole fraction) (in chloroform, 318.75 K): 0.511 | solubility (mole fraction) (in chloroform, 323.13 K): 0.557 | solubility (mole fraction) (in ethyl acetate, 287.85 K): 0.231 | solubility (mole fraction) (in ethyl acetate, 292.95 K): 0.281 | solubility (mole fraction) (in ethyl acetate, 297.25 K): 0.311 | solubility (mole fraction) (in ethyl acetate, 302.15 K): 0.357 | solubility (mole fraction) (in ethyl acetate, 306.65 K): 0.403 | solubility (mole fraction) (in ethyl acetate, 311.25 K): 0.452 | solubility (mole fraction) (in ethyl acetate, 316.45 K): 0.516 | solubility (mole fraction) (in ethyl acetate, 321.35 K): 0.573 | solubility (mole fraction) (in ethyl acetate, 325.85 K): 0.643 | solubility (mole fraction) (in ethyl acetate, 330.15 K): 0.711 | solubility (mole fraction) (in methanol, 287.65 K): 0.0115 | solubility (mole fraction) (in methanol, 291.55 K): 0.016 | solubility (mole fraction) (in methanol, 297.15 K): 0.0235 | solubility (mole fraction) (in methanol, 302.4 K): 0.0342 | solubility (mole fraction) (in methanol, 307.25 K): 0.046 | solubility (mole fraction) (in methanol, 311.95 K): 0.0608 | solubility (mole fraction) (in methanol, 316.35 K): 0.0761 | solubility (mole fraction) (in methanol, 321.25 K): 0.0951 | solubility (mole fraction) (in methanol, 327.15 K): 0.121

COc1cccc(Nc2ccccc2)c1
solubility (mole fraction) [1]: 0.149 | solubility (mole fraction) (in 1,2-dichloroethane, 292.3 K): 0.182 | solubility (mole fraction) (in 1,2-dichloroethane, 297.35 K): 0.216 | solubility (mole fraction) (in 1,2-dichloroethane, 302.55 K): 0.258 | solubility (mole fraction) (in 1,2-dichloroethane, 308.65 K): 0.312 | solubility (mole fraction) (in 1,2-dichloroethane, 313.15 K): 0.355 | solubility (mole fraction) (in 1,2-dichloroethane, 318.85 K): 0.401 | solubility (mole fraction) [2]: 0.443 | solubility (mole fraction) [3]: 0.502 | solubility (mole fraction) [4]: 0.545 | solubility (mole fraction) (in acetone, 287.25 K): 0.237 | solubility (mole fraction) (in acetone, 292.85 K): 0.264 | solubility (mole fraction) (in acetone, 298.95 K): 0.3 | solubility (mole fraction) (in acetone, 303.05 K): 0.327 | solubility (mole fraction) (in acetone, 308.15 K): 0.361 | solubility (mole fraction) (in acetone, 313.05 K): 0.407 | solubility (mole fraction) (in acetone, 317.55 K): 0.456 | solubility (mole fraction) (in acetone, 321.75 K): 0.513 | solubility (mole fraction) (in chloroform, 290.25 K): 0.181 | solubility (mole fraction) (in chloroform, 295.25 K): 0.218 | solubility (mole fraction) (in chloroform, 300.55 K): 0.258 | solubility (mole fraction) (in chloroform, 306.15 K): 0.308 | solubility (mole fraction) (in chloroform, 311.5 K): 0.35 | solubility (mole fraction) (in chloroform, 315.5 K): 0.386 | solubility (mole fraction) (in chloroform, 319.8 K): 0.424 | solubility (mole fraction) (in chloroform, 323.13 K): 0.456 | solubility (mole fraction) (in ethyl acetate, 287.15 K): 0.195 | solubility (mole fraction) (in ethyl acetate, 291.05 K): 0.225 | solubility (mole fraction) (in ethyl acetate, 295.55 K): 0.254 | solubility (mole fraction) (in ethyl acetate, 300.18 K): 0.283 | solubility (mole fraction) (in ethyl acetate, 306.35 K): 0.329 | solubility (mole fraction) (in ethyl acetate, 311.25 K): 0.366 | solubility (mole fraction) (in ethyl acetate, 316.25 K): 0.407 | solubility (mole fraction) (in ethyl acetate, 321.35 K): 0.442 | solubility (mole fraction) (in ethyl acetate, 326.25 K): 0.5 | solubility (mole fraction) (in ethyl acetate, 330.15 K): 0.543 | solubility (mole fraction) (in methanol, 287.25 K): 0.0134 | solubility (mole fraction) (in methanol, 291.95 K): 0.0174 | solubility (mole fraction) (in methanol, 296.65 K): 0.0214 | solubility (mole fraction) (in methanol, 301.15 K): 0.0268 | solubility (mole fraction) (in methanol, 305.35 K): 0.0339 | solubility (mole fraction) (in methanol, 311.85 K): 0.0478 | solubility (mole fraction) (in methanol, 316.25 K): 0.0579 | solubility (mole fraction) (in methanol, 321.25 K): 0.0724 | solubility (mole fraction) (in methanol, 327.15 K): 0.0972
